From patent publication US7186519B2 (priority 2002, dated 2007)
Entries after “also recorded” stand apart in the source; their conditions may differ.

What was measured:
CT43 cells = assay type: cell-based, Chinese hamster
[1] = test system: CT43 cells expressing NPC1-GFP; assay: Fluorescence microscopy of BCθ binding in NPC1-GFP transfected cells; conditions: CT43 cells expressing NPC1-GFP exposed to U18666A
Description: To examine the effect of NPC1 expression on intracellular BCθ binding to cholesterol in CT43 cells, a construct comprising a GFP-tagged NPC1 protein (NPC1-GFP) was prepared and introduced into CT43 cells by transient transfection. […] After BCθ binding, cells containing NPC1-GFP were viewed in the red channel to detect the BCθ fluorescence signal or in the green channel to detect the NPC1-GFP fluorescence signal. The two fluorescence signals were then merged to examine their degree of overlap.
2-hydroxypropyl-β-cyclodextrin (SIGMA™-Aldrich, St. Louis, Mo.) was added to culture medium using well-known methods (Rothblat, et al. (1999) supra). U18666A was provided to the cells using standard conditions (Lange, et al. (2000) supra; Liscum and Faust (1989) supra).
Transient transfection of NPC1-GFP was performed in CT43 cells using FUGENE™ 6 according to manufacturer's instructions (Roche, Indianapolis, Ind.). Transfected cells were imaged within 2–3 days of transfection.
Cells were grown on glass coverslips in six-well plates and processed for fluorescence studies. […]

25RA cells = assay type: cell-based, Chinese hamster

Molecule: 2-hydroxypropyl-b-cyclodextrin [hpCD]
- Effect on BCθ fluorescence signal (intracellular cholesterol) (CT43 cells): both cell lines retained most of the BCθ fluorescence signals; also recorded: retained much of the signal

Molecule: CCN(CC)CCO[C@H]1CC[C@@]2(C)C(=CC[C@@H]3[C@@H]2CC[C@]2(C)C(=O)CC[C@@H]32)C1 [U18666A]
- Effect on binding of BCθ to intracellular cholesterol [1]: binding of BCθ to intracellular cholesterol persisted

Molecule: CCCCC[C@@H](O)[C@H]1C(=O)O[C@H](C)[C@@H](O)/C=C/C=C/C=C/C=C/C=C(\C)[C@@H](O)C[C@H](O)C[C@H](O)C[C@H](O)C[C@H](O)C[C@H](O)C[C@@H]1O [filipin]
- Binding to intracellular cholesterol (25RA cells): not in 25RA cells
- Binding to intracellular cholesterol (CT43 cells): able to bind intracellular cholesterol in CT43 cells
